Earlier results, collected in patent publication US7750010B2, “Tricyclic anilide spirohydantion CGRP receptor antagonists” (Merck Sharp & Dohme Corp., priority 2004, dated 2010).
No end group written: not given here.

Experiments:
facial blood flow [1] = conditions: marmoset, electrical stimulation of the trigeminal ganglion
middle meningeal artery = conditions: rats, electrical stimulation of the dura mater, prior administration
facial blood flow [2] = conditions: rat, trigeminal ganglion stimulation

Compound	effect on increase in facial blood flow (facial blood flow [1])	effect on increase in diameter of the middle meningeal artery (middle meningeal artery)	effect on increased facial blood flow (facial blood flow [2])
NCCCC[C@H](NC(=O)[C@@H](Cc1cc(Br)c(O)c(Br)c1)NC(=O)N1CCC(N2Cc3ccccc3NC2=O)CC1)C(=O)N1CCN(c2ccncc2)CC1 [BIBN4096BS]	could be blocked		
CGRP(8-37): a fragment of CGRP that lacks seven N-terminal amino acid residues; a peptide CGRP antagonist (VTHRLAGLLSRSGGVVKNNFVPTNVGSKAF; ends and bridges not checked; UniProt P06881 90-119, looked up, fragment)		blocked	inhibited
